Measurements reported in patent US7071197B2, “N,N-disubstituted diazocycloalkanes” (Recordati S.A., priority 2002, dated 2006).

Assays:
[1] = biological target: T1, human 5HT1A-serotonergic receptor (Homo sapiens, UniProt P08908); assay: [3H]8-OH-DPAT radioligand binding to human recombinant 5-HT1A receptors; details: for Ki: [3H]8-OH-DPAT, HeLa cell membranes, read-out: Affinity: Ki; for potency at the 5-HT1A receptor compared with Ex. 5: statistical signficance p<0.01
T1 construct: expressed in transfected cells
T1 sequence (P08908 1-422): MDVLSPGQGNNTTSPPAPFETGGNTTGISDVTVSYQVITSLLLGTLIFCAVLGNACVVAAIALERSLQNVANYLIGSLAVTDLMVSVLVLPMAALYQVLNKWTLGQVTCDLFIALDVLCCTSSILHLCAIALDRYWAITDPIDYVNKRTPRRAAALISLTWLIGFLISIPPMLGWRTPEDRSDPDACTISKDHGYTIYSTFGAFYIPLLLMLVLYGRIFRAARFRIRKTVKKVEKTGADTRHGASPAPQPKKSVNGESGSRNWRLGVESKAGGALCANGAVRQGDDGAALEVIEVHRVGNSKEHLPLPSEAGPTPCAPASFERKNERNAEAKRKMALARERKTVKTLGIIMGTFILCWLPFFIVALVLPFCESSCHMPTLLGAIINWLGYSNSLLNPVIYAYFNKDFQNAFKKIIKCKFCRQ
Method: A genomic clone coding for the human 5HT1A-serotonergic receptor was stably transfected in a human cell line (HeLa). HeLa cells were grown as monolayers in Dulbecco's modified Eagle medium (DMEM), containing 10% fetal bovine serum, gentamycin (0.1 mg/ml) and 5% carbon dioxide, at 37° C. The cells were detached from the growth flask at 95% confluence by a cell scraper and were lysed in cold 5 mM Tris and 5 mM EDTA buffer (pH 7.4). The homogenates were centrifuged at 40000×g×20 minutes and the pellets were resuspended in a small volume of cold 5 mM Tris and 5 mM EDTA buffer (pH 7.4) and immediately frozen and stored at −70° C. until use.
[^3H]8-OH-DPAT binding: on the day of experiment, the cell membranes were resuspended in incubation buffer: 50 mM Tris HCl (pH 7.4), 2.5 mM MgCl2, […] (Fargin et al., Nature 335, 358–360, 1988). The membranes were incubated in a final volume of 1 ml for 30 minutes at 30° C. with 1 nM [^3H]8-OH-DPAT, in the absence or presence of the test compounds. Non-specific binding was determined in the presence of 10 μM 5-HT. Incubation was stopped by addition of cold Tris-HCl buffer and rapid filtration through a 0.2%-polyethyleneimine-pretreated Whatman-GF/B or Schleicher-&-Schuell-GF52 filter.
The affinity of the tested compounds was evaluated as inhibition of specific binding of the radioligand to 5-HT1A receptors (IC50) by using the non-linear curve-fitting program (De Lean et al., Am. J. Physiol. 235, E97-E102, 1978). The IC50 value was converted to an affinity constant (Ki) by the equation of Cheng et al., Biochem. Pharmacol. 22, 3099–3108 (1973).

[2] = system: rhythmic bladder-voiding contractions in anaesthetised rats; assay: Rhythmic bladder-voiding contractions induced by bladder filling in anaesthetised rats; format: in vivo, rat; details: for ED50: Rattus norvegicus, read-out: ED50 (frequency) (extrapolated dose inducing a reduction of the number of contractions > 30% in 50% of treated rats); for ED50 / ED10 min (extrapolated dose inducing 10 minutes of disappearance of the contractions): intravenous administration, anaesthetised rats; for time of disappearance of bladder contractions: after administration of 0.3 mg/kg
Method: Female Sprague-Dawley rats weighing 225–275 g (Crl: CD® (SD) IGS BR, Charles River Italia) were used. The animals were housed with free access to food and water and maintained on a forced 12-hour alternating light-dark cycle at 22–24° C. for at least one week, except during the experiment. The activity on rhythmic bladder voiding contractions was evaluated according to the method of Dray (Dray J., Pharmacol. Methods, 13:157, 1985), with some modifications as in Guarneri (Guarneri, Pharmacol. Res. 27:173, 1993). Briefly, the rats were anaesthetised by subcutaneous injection of 1.25 g/kg (5 ml/kg) urethane, after which the urinary bladder was catheterised via the urethra using PE 50 polyethylene tubing filled with physiological saline. The catheter was tied in place with a ligature around the external urethral orifice and was connected to conventional pressure transducers (Statham P23 ID/P23 XL). […] The bladder was then filled via the recording catheter by incremental volumes of warm (37° C.) saline until reflex bladder-voiding contractions occurred (usually 0.81.5 ml). For intravenous injection of bioactive compounds, PE 50 polyethylene tubing filled with physiological saline was inserted into the jugular vein.
From the cystometrogram, the number of contractions recorded 15 minutes before (basal values) and after treatment, as well as the mean amplitude of these contractions (mean height of the peaks in mmHg), was evaluated.
Since most compounds produced an effect that was relatively rapid in onset and led to a complete cessation of bladder contractions, bioactivity was conveniently estimated by measuring the duration of bladder quiescence (i.e., the length of the time during which no contractions occurred). The number of tested animals showing a reduction in the number of contractions higher than 30% of that observed in the basal period was recorded too.
The extrapolated doses which induced a reduction in the number of contractions greater than 30% in 50% of the treated rats (ED50) were evaluated by the method of Bliss (Bliss C. I., Quart J. Pharm. Pharmacol. 11, 192–216, 1938).

| Structure (SMILES) | Ki [1] | potency at the 5-HT1A receptor compared with Ex. 5 [1] | ED50 [2] | time of disappearance of bladder contractions [2] | extrapolated dose inducing 10 minutes of disappearance of the contractions, fold lower than Ex. 5 ([2]; compared with Ex. 5) | ED10 min (extrapolated dose inducing 10 minutes of disappearance of the contractions) [2] |
| --- | --- | --- | --- | --- | --- | --- |
| COc1ccccc1N1CCN(CC[C@H](c2ccccc2F)[C@@H](O)C2CCCCC2)CC1 [Ex. 1Y, 1-[(3R,4S)-4-cyclohexyl-4-hydroxy-3-(2-fluorophenyl)-butyl]-4-(2-methoxyphenyl)-piperazine] | 0.37 nM | more potent than Ex. 5 | 0.015 mg/kg | 24 min | at least 2 fold | 23 µg/kg |
| COc1ccccc1N1CCN(CC[C@@H](c2ccccc2F)[C@H](O)C2CCCCC2)CC1 (racemic) [Ex. 1, 1-[(SR-RS)-4-cyclohexyl-4-hydroxy-3-(2-fluorophenyl)-butyl]-4-(2-methoxyphenyl)-piperazine] | 0.13 nM | more potent than Ex. 5 | 0.03 mg/kg | – | – | 198 µg/kg |
| COc1ccccc1N1CCN(CC[C@H](c2ccccc2)[C@@H](O)C2CCCCC2)CC1 (racemic) [Ex. 5, 1-[(RS,SR)-4-Cyclohexyl-4-hydroxy-3-phenyl-butyl]-4-(2-methoxyphenyl)-piperazine, reference compound] | 0.65 nM | – | 0.018 mg/kg | 14 min | – | 66 µg/kg |
| COc1ccccc1N1CCN(CC[C@H](c2ccccc2F)[C@H](O)C2CCCCC2)CC1 [Ex. 2X, 1-[(3R,4R)-4-cyclohexyl-4-hydroxy-3-(2-fluorophenyl)-butyl]-4-(2-methoxyphenyl)-piperazine] | 0.24 nM | more potent than Ex. 5 | – | – | – | – |
